Test results published in US20010041365A1, “Methods for monitoring alcohol consumption” (priority 2000, published 2001).
Where two headings read alike, the source gives them in different places. Marks after values point to notes of the source that are not given here.

Key:
[1] = Post-mortem liver and adipose FAEE as markers of pre-mortem ethanol intake (Example 9); type: in vivo; conditions: autopsy tissue
Excerpt: This study was approved by both the Massachusetts Medical Examiner Office Committee and the Massachusetts General Hospital Pathology Quality Assurance Committee. Twenty-four sets of samples were collected at the Massachusetts State Medical Examiner's Office and 7 sets of samples were obtained from the Pathology Department of Massachusetts General Hospital. Medical history, history of ethanol ingestion (obtained from the organ bank, treating physician, health insurance records, and/or relatives), and the blood ethanol level at autopsy were obtained in each case. Only cases with available blood ethanol levels were included in this study. Individuals who had detectable blood ethanol levels at the time of autopsy, with or without a history of ethanol abuse, were grouped as “positive for ethanol.” Individuals categorized in the chronic alcoholic or social drinker groups met all of the following criteria a) no known alcohol intake immediately prior to death; b) undetectable blood ethanol level in blood samples collected at autopsy; and c) no suspicious incident at the time of death. In addition, chronic alcoholics were diagnosed according to the Diagnostic and Statistical Manual-IV.
Samples of liver and adipose tissue were collected at autopsy from randomly selected cases and FAEE were isolated and quantitated from these organs as mass per gram wet weight. […]

[2] = Plasma FAEE levels in acute (binge) and chronic drinkers at peak ethanol levels and 24 hours after peak (Example 7); type: in vivo, human; conditions: for mean difference between proportion of total FAEE which is ethyl stearate and proportion which is ethyl oleate: 24 hours after alcohol consumption; for average proportion of total FAEE which is ethyl oleate: peak or near peak ethanol levels; for concentration at 24 h: human, plasma, oral; for Proportion of Ethyl Oleate in Binge Drinkers (Mean +/− SEM) / Proportion of Ethyl Oleate in Binge Drinkers (range) / Proportion of Ethyl Oleate in Chronic Drinkers (Mean +/− SEM) / Proportion of Ethyl Oleate in Chronic Drinkers (range): of total FAEE in plasma
Description: Thus, as an example, gas chromatography either alone or in combination with mass spectrometry and/or an initial step of solid phase extraction can be used to determine total and/or individual fatty acid ethyl ester concentrations. […] If the sample has been previously harvested and frozen, it is thawed out and a 1 mL aliquot is removed for analysis. […] In order to determine and quantitate FAEE content, an internal standard of 1 nmol of ethyl heptadecanoate (ethyl 17:0) is added to each sample. Samples are extracted with acetone hexane (2:8, by volume) and dried under nitrogen vapors to a volume of approximately 300 μL. FAEEs are isolated by solid phase extraction using Bond Elut-LRC aminopropyl columns. Columns are pre-washed with dichloromethane followed by hexane; the sample is then applied to the column and eluted by successive washes of hexane and dichloromethane. Combined eluates are concentrated, and FAEEs are then quantified by GC-MS using a Hewlett Packard 5890 Series II gas chromatograph equipped with a Supelcowax SP-2330 capillary column coupled to an HP-5971 mass spectrometer. The injector and detector are maintained at 260° C. and 280° C., respectively. The oven program is initially maintained at 130° C. for 2 minutes then ramped to 160° C. at 5° C./min, ramped again at 2° C./min to 180° C., held for 7 min, finally, ramped to 230° C. at 15° C/min and maintained for 2 min. Carrier gas flow rate is maintained at a constant 0.8 mL/min throughout. Single-ion monitoring is performed, quantifying appropriate base ions for individual FAEE species [i.e., ions m/z 67, 88, and 101 for ethyl palmitate (E16:0), ethyl heptadecanoate (E17:0), ethyl stearate (E18:0), ethyl oleate (E18:1), and ethyl linoleate (E18.2); and ions m/z 79 and 91 for ethyl arachidonate (E20:4), ethyl eicosapentaenoate (E20:5), and ethyl docosahexaenoate (E22:6)]. FAEEs are quantitated by interpolation of the slope generated from individually prepared calibration curves comparing areas of varying concentrations of E16:0-E22:6 to fixed concentrations of the internal standard (E17:0). Mass relationships are obtained for each FAEE using its individual calibration curve. Total FAEE mass is determined by the addition of masses of individual FAEEs (E16:0-E22:6).
A subset of human subjects presenting at the Massachusetts General Hospital with apparent alcohol related symptoms were entered into this study. Blood was collected from such subjects immediately at the time of presentation, which was assumed to be at peak or near peak ethanol levels, and again 24 hours after presentation. A medical history taken from each subject was used to categorize the subject as a chronic alcoholic or an acute (i.e., binge) drinker. Blood samples were processed, as described herein, to determine the absolute levels of ethyl palmitate, ethyl oleate and total FAEE in plasma.

[3] = Distribution of plasma FAEE species in chronic alcoholics vs. acutely intoxicated individuals (Example 6); type: in vivo, human; conditions: for proportion of total FAEE, acute drinkers relative to chronic drinkers: plasma
Excerpt: Plasma was obtained from chronic alcoholics (i.e. chronic drinkers) at the time of admission to a detoxification program. Acutely intoxicated control subjects used for comparison in this study were normal, healthy volunteers who also participated in the study concerning gender and alcoholic beverage type (see above).

[4] = Serum FAEE and blood ethanol over time in men and women after alcohol consumption over 90 minutes (Example 1); type: in vivo, human
Description: Seven volunteers (four men and […]) were given measured amounts of 100-proof vodka mixed with fruit juice in a 1:3 ratio which was weight-adjusted to increase blood ethanol levels to approximately 120-147 mg/dL. The beverage was divided in 9 equal aliquots which the subjects drank over a 90 minute period, 1 aliquot every 10 minutes. This alcohol intake represented consumption to the legal limit of intoxication. Once the drinking commenced, blood was collected from a catheter every 15 min for the first 2.5 h. Between 2.5 and 4.0 h, samples were collected every 30 min; and from 4 to 8 h, they were collected every 60 min. A final blood sample was also collected 24 h after the ethanol ingestion commenced. Blood was collected from a peripheral venous catheter into vacuum tubes without anti-coagulant (for serum FAEE) and into tubes with the anti-coagulant sodium citrate (for plasma ethanol). (Soderberg, et al., Clinical Chemistry, 45(12):2183-2190, 1999; Doyle, K. M. et al., JAMA, 276:1152-1156, 1996)
All samples were extracted with acetone/hexane (2/8, v/v) and dried under nitrogen vapors to a volume of approximately 300 μL. […] FAEEs were then quantitated by gas chromatography-mass spectrometry (GC-MS) using a Hewlett-Packard 5890 Series II gas chromatograph equipped with a Supelcowax SP-2330 capillary column coupled to an HP-5971 mass spectrometer.

[5] = a day after peak or near peak alcohol levels
[6] = binge drinkers, 24 hours after peak ethanol levels

Question: Which “level in liver and adipose, individuals with detectable blood ethanol at autopsy compared with chronic alcoholics and social drinkers” value [1] does the source give for `CCCCC/C=C\C/C=C\C/C=C\C/C=C\CCCC(=O)OCC` [ethyl arachidonate] here?
Answer: Its value is “markedly higher”.

Question: What does the source list for `CCCCCCCCCCCCCCCC(=O)OCC` [ethyl palmitate]?
Answer: Ethyl Palmitate to Ethyl Oleate Ratio in Chronic Drinkers (Mean +/− SEM) ([2]; 24 hours after peak): (0.41 +/− 0.03); Ethyl Palmitate to Ethyl Oleate Ratio in Chronic Drinkers (range) ([2]; 24 hours after peak): 0.22-0.73; Ethyl Palmitate to Ethyl Oleate Ratio in Binge Drinkers (Mean +/− SEM) ([2]; 24 hours after peak, mean calculated using a value of 100 where the ratio was ∞): (69.8 +/− 13.1)*; P/O ratio of all chronic drinkers [2, 5]: less than 1.0; P/O ratio of most binge drinkers [2, 5]: ∞; mean proportion of total FAEE which is ethyl palmitate [2, 6]: 80%; mean proportion of total FAEE which is ethyl palmitate ([2]; binge drinkers, peak or near peak alcohol levels): 49%; mean proportion of total FAEE which is ethyl palmitate ([2]; chronic alcoholics, 24 hours after peak ethanol levels): 29%; mean proportion of total FAEE which is ethyl palmitate ([2]; chronic alcoholics, peak or near peak alcohol levels): 38%; Ethyl Palmitate to Ethyl Oleate Ratio in Binge Drinkers (Mean +/− SEM) ([2]; peak or near peak): (6.28 +/− 5.0); Ethyl Palmitate to Ethyl Oleate Ratio in Binge Drinkers (range) ([2]; peak or near peak): 0.96-70.65; Ethyl Palmitate to Ethyl Oleate Ratio in Chronic Drinkers (Mean +/− SEM) ([2]; peak or near peak): (1.27 +/− 0.12); Ethyl Palmitate to Ethyl Oleate Ratio in Chronic Drinkers (range) ([2]; peak or near peak): 0.53-3.49; proportion of total FAEE, acute drinkers relative to chronic drinkers [3]: almost three times higher

Question: What does the source list for `CCCCCCCCCCCCCCCCCC(=O)OCC` [ethyl stearate]?
Answer: mean difference between proportion of total FAEE which is ethyl stearate and proportion which is ethyl oleate ([2]; binge drinkers): about 10%; mean difference between proportion of total FAEE which is ethyl stearate and proportion which is ethyl oleate ([2]; chronic alcoholics): roughly 70%; proportion of total FAEE, acute drinkers relative to chronic drinkers [3]: ~15 fold

Question: Which results are given for `CCCCCCCC/C=C\CCCCCCCC(=O)OCC` [ethyl oleate]?
Answer: Concentration of Ethyl Oleate in Binge Drinkers (Mean +/− SEM) ([2]; 24 hours after peak): (14 ± 8) pmol/mL; Concentration of Ethyl Oleate in Chronic Drinkers (Mean +/− SEM) ([2]; 24 hours after peak): (2714 ± 1821) pmol/mL; proportion of total FAEE which is ethyl oleate [2, 6]: 10%; average proportion of total FAEE which is ethyl oleate ([2]; binge drinkers): 32%; proportion of total FAEE which is ethyl oleate ([2]; chronic drinkers, 24 hours after peak ethanol levels): 71%; average proportion of total FAEE which is ethyl oleate ([2]; chronic drinkers): 28%; concentration at 24 h ([2]; 24 hours after peak ethanol levels, read-out: concentration of ethyl oleate in the majority of binge drinkers (9 out of 13)): < 1 nM; concentration at 24 h ([2]; 24 hours after peak, read-out: Concentration of Ethyl Oleate in Binge Drinkers (range)): 0 to 80 nM; concentration at 24 h ([2]; 24 hours after peak, read-out: Concentration of Ethyl Oleate in Chronic Drinkers (range)): 120 to 28100 nM; Proportion of Ethyl Oleate in Binge Drinkers (Mean +/− SEM) ([2]; 24 hours after peak): (0.09 +/− 0.04); Proportion of Ethyl Oleate in Binge Drinkers (range) ([2]; 24 hours after peak): 0.01-0.46; Proportion of Ethyl Oleate in Chronic Drinkers (Mean +/− SEM) ([2]; 24 hours after peak): (0.71 +/− 0.02); Proportion of Ethyl Oleate in Chronic Drinkers (range) ([2]; 24 hours after peak): 0.58-0.82; Proportion of Ethyl Oleate in Binge Drinkers (Mean +/− SEM) ([2]; peak or near peak ethanol): (0.28 +/− 0.02); Proportion of Ethyl Oleate in Binge Drinkers (range) ([2]; peak or near peak ethanol): 0.01-0.44; Proportion of Ethyl Oleate in Chronic Drinkers (Mean +/− SEM) ([2]; peak or near peak ethanol): (0.32 +/− 0.02); Proportion of Ethyl Oleate in Chronic Drinkers (range) ([2]; peak or near peak ethanol): 0.16-0.46; Concentration of Ethyl Oleate in Binge Drinkers (Mean +/− SEM) ([2]; peak or near peak ethanol): (557 ± 82) pmol/mL; Concentration of Ethyl Oleate in Binge Drinkers (range) ([2]; peak or near peak ethanol): 184 to 1049 nM; Concentration of Ethyl Oleate in Chronic Drinkers (Mean +/− SEM) ([2]; peak or near peak ethanol): (2817 +/− 780) pmol/mL; Concentration of Ethyl Oleate in Chronic Drinkers (range) ([2]; peak or near peak ethanol): 96 to 16011 nM; percent of total FAEE in plasma ([3]; acute drinkers): about 30%; percent of total FAEE in plasma ([3]; chronic drinkers, at admission to detoxification program): ~75%

Question: For `CCO` [ethanol], which “time at which blood ethanol decreased to initial levels” value ([4]; after the beginning of alcohol intake) is on record?
Answer: Its value is “about 500 minutes”.

Question: And the “maximum level of blood ethanol” value ([4]; both men and women)?
Answer: The value was “approximately 130 mg/dL”.
